Seven molecules from patent publication EP2141163A1, “Substituted thiazolidinones, their production and utilisation as medicine” (Bayer Schering Pharma Aktiengesellschaft, priority 2008, dated 2010) can be followed below.

One experiment deals with T1, PLK-1 (Homo sapiens, UniProt P53350).
T1 construct: Fusionsprotein bestehend aus GST und Plk (Kinase Domäne 33-345; MW 36 kDa, conc 0,8 µg/µl); GST; made in house; host or cells: Hi5 insect cells
Kind of experiment: PLK-1 enzyme assay at 10 mM ATP (indirect HTRF assay). The class given is biochemical. The following applies: read-out: Inhibition PLK-1 IC50 [M] (10 mM ATP). As to the method:
PLK Enzym-Assay (10 mM ATP)
Für den Kinaseassay wird aus Insektenzellen (Hi5) exprimiertes, durch Glutathion-Sepharose-Affinitätschromatographie und anschließender Gel-filtration (Suerdex 75) gereinigtes rekombinantes Fusionsprotein bestehend aus GST und Plk (Kinase Domäne 33-345; MW 36 kDa, conc 0,8 µg/µl) verwendet. Aliqots hiervon werden in flüssigem Stickstoff weggefroren und bei -80°C gelagert und nach dem Auftauen nur einmal verwendet.
Bei dem verwendeten Assay handelt es sich um einen indirekten HTRF-Assay, bei dem folgende Materialien und Verfahrensweisen zum Einsatz kamen. Als Substrat für die Kinasereaktion wird das biotinylierte Peptid Btn-Ahx-KKLNRTLSFAEPG-Amid x TFA, von Biosyntan, Probennr.: 6178.1 (C-Terminus in Amidform) verwendet. Hierbei handelt es sich um eine artifizielle Sequenz, die von keinem bekannten Protein abgeleitet wurde.
50 nl der in 100% Dimethylsulfoxid (DMSO) gelösten Testverbindungen (Endkonzentrationen : 0 µM und Konzentrationen im Bereich von 0,001 - 20 µM) werden mit 2 µl Enzym Arbeitslösung (0,039 ng/µl Plk-1 im Arbeitspuffer [25 mM MgCl2; 1mM DTT; 50 mM Hepes pH 7,0; 0,01% NP40; 1x Complete; 0,05% BSA] für 30 min vorinkubiert. Anschließend wird die Kinase-Reaktion durch Zugabe von 3 µl Substratlösung [16,7 mM Adenosintriphosphate (ATP) und 1,4 µM Substratpeptid (Biotin-Ttds- KKLNRTLSFAEPG -NH2)] in Arbeitspuffer gestartet, und nach 30 min durch Zugabe einer Abstopp-Lösung (100 mM EDTA, 100 mM Hepes pH 7,5, 800 mM Potassiumfluoride, 0,12% BSA, 0,4 µM SA-XLent (0,05 µM, von CIS bio international, Marcoule, Frankreich), Eu^3+ Cryptate-conjugated Rabbit anti-Mouse IgG (1,5 nM; ein mit Europiumkryptat markierter Anti-Maus-IgG-Antikörper von CIS bio international, Marcoule, Frankreich), 1 nM Anti-phospho-Serine Kinase (ein phospho-spezifischer Antikörper von Upstate Biotechnology, Dundee, Schottland), gestoppt, und bei 4°C über Nacht inkubiert. Danach wird die Menge des phosphorylierten Substratpeptids durch Messung des Resonanzenergietransfers vom Europium-markierten Antikörperkomplex zum Streptavidine-XLent bestimmt. Zu diesem Zweck wird die Fluoreszenzemission bei 620 nm und 665 nm nach Anregung bei 350 nm in einem HTRF-Messgerät, z. B. Rubystar (BMG Labtechnologies, Offenburg, Deutschland) oder Viewlux (Perkin-Elmer), bestimmt. Das Verhältnis der Emissionen bei 665 nm und bei 620 nm wird als Maß für die Menge des phosphorylierten Substratpeptids verwendet. Die Daten werden normalisiert (Enzymreaktion ohne Inhibitor = 0 % Inhibition, alle anderen Assaykomponenten, aber kein Enzym = 100 % Inhibition), und IC50-Werte werden durch einen 4 Parameter-Fit mit einer hauseigenen Software berechnet.

The next experiment deals with MCF-7. Kind of experiment: Proliferation assay (crystal violet staining), MCF-7. The class given is cell-based, human. Conditions: Homo sapiens, MCF7, 96 h, tumour cell proliferation, 4 days incubation, read-out: Inhibition IC50 [M] (MCF-7). The protocol: (§1) Kultivierte humane Tumorzellen (MCF7, […] menschliche Mammakarzinomazellen, bezogen von ATCC HTB22; NCI-H460, menschliche nicht kleinzellige Lungenkarzinomazellen, ATCC HTB-177; DU 145, hormonunabhängige menschliche Prostatakarzinomazellen, ATCC HTB-81; HeLa-MaTu, humane Cervixkarzinomazellen, bezogen von EPO-GmbH, Berlin,) werden in einer Dichte von 5000 (MCF7, DU145) bzw. 3000 (NCI-H460, HeLa-MaTu) Zellen/Messpunkt in einer 96-Loch Multititerplatte in 200 µl des entsprechenden Wachstumsmediums ausplattiert. Nach 24 Stunden werden die Zellen einer Platte (Nullpunkt-Platte) mit Kristallviolett gefärbt (s.u.), während das Medium der anderen Platten durch frisches Kulturmedium (200 µl), dem die Testsubstanzen in verschiedenen Konzentrationen (0 µM, sowie im Bereich 0,01 - 30 µM; die finale Konzentration des Lösungsmittels Dimethylsulfoxid beträgt 0,5%) zugesetzt sind, ersetzt. Die Zellen werden für 4 Tage in Anwesenheit der Testsubstanzen inkubiert. Die Zellproliferation wird durch Färbung der Zellen mit Kristallviolett bestimmt: Die Zellen werden durch Zugabe von 20 µl/Messpunkt einer 11%igen Glutaraldehyd-Lösung 15 min bei Raumtemperatur fixiert. Nach dreimaligem Waschen der fixierten Zellen mit Wasser werden die Platten bei Raumtemperatur getrocknet. Die Zellen werden durch Zugabe von 100 µl/Messpunkt einer 0,1%igen Kristallviolett-Lösung (pH durch Zugabe von Essigsäure auf pH3 eingestellt) gefärbt. Nach dreimaligem Waschen der gefärbten Zellen mit Wasser werden die Platten bei Raumtemperatur getrocknet. Der Farbstoff wird durch Zugabe von 100 µl/Messpunkt einer 10%igen Essigsäure-Lösung gelöst. Die Extinktion wird photometrisch bei einer Wellenlänge von 595 nm bestimmt. Die prozentuale Änderung des Zellwachstums wird durch Normalisierung der Messwerte auf die Extinktionwerte der Nullpunktplatte (=0%) und die Extinktion der unbehandelten (0 µM) Zellen (=100%) berechnet. IC50-Werte werden nach einer 4-Parameterkurvenanpassung mit Hilfe eines Firmeneigenen Computerprogramms berechnet.

The subject of the next experiment is DU145. Kind of experiment: Proliferation assay (crystal violet staining), DU145. The class given is cell-based, human. The following applies: Homo sapiens, DU-145, 96 h, tumour cell proliferation, 4 days incubation, read-out: Inhibition IC50 [M] (DU145). As to the method:
as §1

The next experiment relates to NCI-H460. Kind of experiment: Proliferation assay (crystal violet staining), NCI-H460. It counts as cell-based, human. The following applies: Homo sapiens, 96 h, tumour cell proliferation, 4 days incubation, read-out: Inhibition IC50 [M] (NCI-H460). The protocol: as §1

The structures appear in SMILES notation.

For orientation: IC50 means the concentration that gives 50% inhibition.

T1 sequence (P53350 33-345): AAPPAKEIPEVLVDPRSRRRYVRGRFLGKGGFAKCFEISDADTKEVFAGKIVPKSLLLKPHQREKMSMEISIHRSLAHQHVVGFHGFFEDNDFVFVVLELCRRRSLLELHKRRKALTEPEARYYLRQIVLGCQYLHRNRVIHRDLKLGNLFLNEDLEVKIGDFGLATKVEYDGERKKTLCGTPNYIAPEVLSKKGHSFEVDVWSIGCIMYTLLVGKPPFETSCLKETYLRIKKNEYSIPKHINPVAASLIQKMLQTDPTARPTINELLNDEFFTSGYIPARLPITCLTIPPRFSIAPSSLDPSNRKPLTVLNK

With `CCn1c(=O)c(=CNc2ccc3c(c2)c(C2CCN(C)CC2)cn3C)s/c1=C(/C#N)C(=O)NCC(F)(F)F` [B118, (Z,E/Z)-2-Cyan-2-[3-ethyl-5-[[[1-methyl-3-(1-methyl-4-piperidinyl)-1H-indol-5-yl]amino]methylen]-4-oxo-2-thiazolidinyliden]-N-(2,2,2-trifluorethyl)acetamid], the IC50 on PLK-1 turned out to be 2.1e-09 M; in the experiment with MCF-7 it was 2.9e-07 M; in the experiment with DU145, 8.5e-08 M; in the experiment on NCI-H460, 1.7e-07 M.
As for `CCn1c(=C(C#N)C(=O)NCC(F)(F)F)sc(=CNc2ccc3ccn(C4CCN(CC(=O)OC)CC4)c3c2)c1=O` [B72], the IC50 was 3.9e-09 M on PLK-1, 1.2e-07 M in the experiment on MCF-7, 1.2e-07 M in the experiment on DU145 and 1.1e-07 M in the experiment with NCI-H460.
With `CCn1c(=C(C#N)C(=O)NCC#N)sc(=CNc2ccc3cnn(C4CCN(C(C)C)CC4)c3c2)c1=O` [B44], the IC50 on PLK-1 turned out to be 1.1e-09 M; in the experiment on MCF-7, 2e-07 M; in the experiment on DU145, 1.1e-07 M; with NCI-H460 it was 4.9e-07 M.
The matching figures for `CCn1c(=C(C#N)C(=O)NCC(F)(F)F)sc(=CNc2ccc3ccn(C4CCOCC4)c3c2)c1=O` [B59]: 3.7e-08 M, 3.9e-07 M, 1.7e-07 M and 1.8e-07 M.
Consider `CCn1c(=C(C#N)C(=O)NCC(F)(F)F)sc(=CNc2ccc3ccn(CC(=O)N(C)C)c3c2)c1=O` [B80], for which the IC50 at PLK-1 came to 4.9e-08 M; in the experiment on MCF-7, 3.1e-07 M; with DU145 it was 5.1e-07 M; with NCI-H460, 8.9e-07 M.
The matching figures for `CCn1c(=O)c(=CNc2ccc3c(CN4CCCCC4)cn(C)c3c2)s/c1=C(/C#N)C(=O)NCC#N` [B08]: 5.4e-09 M, 6.1e-07 M, 1.4e-07 M and 3.3e-07 M.
Regarding `CCn1c(=C(C#N)C(=O)NCC(F)(F)F)sc(=CNc2ccc3c(c2)c(CCN(C)C)cn3C)c1=O` [B39], the IC50 at PLK-1 is 6.1e-09 M; with MCF-7, 3.8e-07 M; in the experiment on DU145, 1.8e-07 M; in the experiment on NCI-H460, 4.8e-07 M.
